Reference: PubChem BioAssay AID588698 (Southern Research Specialized Biocontainment Screening …, 2011)
Results filed as inconclusive are left out. Active and inactive are the calls of the source.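 How the source made its calls: active means inhibition of 30% or more at any tested concentration; inactive means the rest, inconclusive results apart.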

What follows are compounds tested against M1-family alanyl aminopeptidase (Plasmodium falciparum 3D7) (assay: PfM1AAP enzyme inhibition, dose response, selectivity assay for PfM17LAP inhibitor project, biochemical, QFRET, H-Leu-NHMec substrate (AID 588698)). Settings: recombinant PfM1AAP, H-Leu-NHMec fluorogenic substrate cleavage.

IC50 [µM] | SMILES
33.7 | O=C(Cc1ccc2ccccc2c1)NO
79.4 | O=C(Cc1cccc2ccccc12)NO

Same assay, conditions: recombinant PfM1AAP, H-Leu-NHMec fluorogenic substrate cleavage; at 100 µM (top of the series)

SMILES | inhibition
Cc1cc(=O)[nH]c(SCC(=O)Nc2ccccc2)n1 | inactive
NC(N)=NCCC[C@H](N)C(=O)NO | inactive
Cc1cc(SCC(=O)Nc2ccccc2C(=O)O)nc2ccccc12 | inactive
CCC(C)(C)C1CCc2c(sc(NC(=O)C3CC(C)=C(C)CC3C(=O)O)c2C(=O)OC)C1 (stereo not drawn) | inactive
O=C1OCCC1Sc1nnc(NC2CCCCC2)s1 (stereo not drawn) | inactive
COC(=O)c1c(NC(=O)C2CC=CCC2C(=O)O)sc(C)c1-c1ccc(C)cc1 (stereo not drawn) | inactive
COC(=O)c1cc(OC)c(OC)cc1NC(=O)c1sc2nc(C)ccc2c1N | inactive
O=C(CSc1nc(O)cc(=O)[nH]1)Nc1ccccc1 | inactive
COC(=O)c1ccccc1NC(=O)c1ccc2c(Cl)c3c(nc2c1)CCC3 | inactive
CC(C)C[C@H](N)C(=O)NO | inactive
CC1=C(C)CC(C(=O)Nc2nc(-c3cc(C)ccc3C)c(C)s2)C(C(=O)O)C1 (stereo not drawn) | inactive
Cc1ccc(NC(=O)CSc2nc(O)cc(=O)n2Cc2ccccc2)cc1 | inactive
COC(=O)c1c(NC(=O)c2ccccc2C(=O)O)sc2c1CCCC2 | inactive
O=C(CSc1nccc(=O)[nH]1)Nc1ccc(N2CCOCC2)cc1 | inactive
CC1=C(C)CC(C(=O)Nc2ccc(Oc3ccc(Cl)cc3)cc2)C(C(=O)O)C1 (stereo not drawn) | inactive

Now from value to compound:

inhibition | SMILES
inactive | CC1CCc2sc(C(=O)Nc3cccc4c3C(=O)NC4)cc2C1 (stereo not drawn)
inactive | COc1ccc(-c2nnc(NC(=O)C3CC(C)=C(C)CC3C(=O)O)s2)cc1 (stereo not drawn)
inactive | COc1cc(NC(=O)CSc2ccccc2)c(C(=O)O)cc1OC
inactive | COc1ccc(OCCC(=O)NO)cc1
inactive | COC(=O)c1ccccc1NC(=O)c1cc2cc3ccc(C)cc3nc2s1
inactive | O=C(O)c1ccccc1C(=O)Nc1nc2c(s1)CCCC2
inactive | COC(=O)c1c(NC(=O)C2CCCCC2C(=O)O)sc2c1CCC(c1ccccc1)C2 (stereo not drawn)
inactive | O=C(CSc1nccc(=O)[nH]1)Nc1ccc(Oc2ccccc2)cc1
inactive | O=C(Nc1ccc(Cl)cc1)Nc1ccccc1C(=O)O
inactive | COc1cc(NC(=O)c2ccc(-c3ccccc3)cc2)c(C(=O)O)cc1OC
inactive | CCn1c2ccccc2c2cc(NC(=O)CSc3nc(C)cc(=O)[nH]3)ccc21
